# Reference: PubChem BioAssay (NCI)
#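 The compound was tested at five concentrations on cells cultured in 96-well plates, with a 48-hour exposure period. TGI: concentration producing complete growth inhibition.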
# Assays:
# Assay in all cases: NCI-60 cell line screen, 48 h
# [1] = system: 786-0 renal
# [2] = system: A498 renal
# [3] = system: A549 NSCLC
# [4] = system: ACHN renal
# [5] = system: CAKI-1 renal
# [6] = system: CCRF-CEM leukemia
# [7] = system: COLO 205 colon
# [8] = system: DLD-1 colon
# [9] = system: DMS 114 small cell lung
# [10] = system: DMS 273 small cell lung
# [11] = system: HCC-2998 colon
# [12] = system: HCT-116 colon
# [13] = system: HCT-15 colon
# [14] = system: HL-60(TB) leukemia
# [15] = system: HOP-18 NSCLC
# [16] = system: HOP-62 NSCLC
# [17] = system: HOP-92 NSCLC
# [18] = system: HT29 colon
# [19] = system: IGROV1 ovarian
# [20] = system: K-562 leukemia
# [21] = system: KM12 colon
# [22] = system: KM20L2 colon
# [23] = system: LOX IMVI melanoma
# [24] = system: LXFL 529 NSCLC
# [25] = system: M14 melanoma
# [26] = system: M19-MEL melanoma
# [27] = system: MALME-3M melanoma
# [28] = system: MOLT-4 leukemia
# [29] = system: NCI-H226 lung
# [30] = system: NCI-H23 lung
# [31] = system: NCI-H460 lung
# [32] = system: NCI-H522 lung
# [33] = system: OVCAR-3 ovarian
# [34] = system: OVCAR-4 ovarian
# [35] = system: OVCAR-5 ovarian
# [36] = system: OVCAR-8 ovarian
# [37] = system: RPMI-8226 leukemia
# [38] = system: RXF-631 renal
# [39] = system: SF-268 CNS
# [40] = system: SF-295 CNS
# [41] = system: SF-539 CNS
# [42] = system: SK-MEL-2 melanoma
# [43] = system: SK-MEL-28 melanoma
# [44] = system: SK-MEL-5 melanoma
# [45] = system: SK-OV-3 ovarian
# [46] = system: SN12C renal
# [47] = system: SNB-19 CNS
# [48] = system: SNB-75 CNS
# [49] = system: SR leukemia
# [50] = system: SW-620 colon
# [51] = system: TK-10 renal
# [52] = system: U251 CNS
# [53] = system: UACC-257 melanoma
# [54] = system: UACC-62 melanoma
# [55] = system: UO-31 renal
# [56] = system: XF 498 CNS
# [57] = system: EKVX NSCLC
# [58] = system: RXF 393 renal
# [59] = system: SNB-78 CNS
smiles,measurement,setting,value
CC(C)(O)[C@@H]1CC[C@@]2(C)CCCC(O)C2(O)C1 (stereo partly specified),TGI,[1],> 100 µM
same,TGI,[2],> 100 µM
same,TGI,[3],> 100 µM
same,TGI,[4],> 100 µM
same,TGI,[5],> 100 µM
same,TGI,[6],> 100 µM
same,TGI,[7],> 100 µM
same,TGI,[8],> 100 µM
same,TGI,[9],> 100 µM
same,TGI,[10],> 100 µM
same,TGI,[11],> 100 µM
same,TGI,[12],> 100 µM
same,TGI,[13],> 100 µM
same,TGI,[14],> 100 µM
same,TGI,[15],> 100 µM
same,TGI,[16],> 100 µM
same,TGI,[17],> 100 µM
same,TGI,[18],> 100 µM
same,TGI,[19],> 100 µM
same,TGI,[20],> 100 µM
same,TGI,[21],> 100 µM
same,TGI,[22],> 100 µM
same,TGI,[23],> 100 µM
same,TGI,[24],> 100 µM
same,TGI,[25],> 100 µM
same,TGI,[26],> 100 µM
same,TGI,[27],> 100 µM
same,TGI,[28],> 100 µM
same,TGI,[29],> 100 µM
same,TGI,[30],> 100 µM
same,TGI,[31],> 100 µM
same,TGI,[32],> 100 µM
same,TGI,[33],> 100 µM
same,TGI,[34],> 100 µM
same,TGI,[35],> 100 µM
same,TGI,[36],> 100 µM
same,TGI,[37],> 100 µM
same,TGI,[38],> 100 µM
same,TGI,[39],> 100 µM
same,TGI,[40],> 100 µM
same,TGI,[41],> 100 µM
same,TGI,[42],> 100 µM
same,TGI,[43],> 100 µM
same,TGI,[44],> 100 µM
same,TGI,[45],> 100 µM
same,TGI,[46],> 100 µM
same,TGI,[47],> 100 µM
same,TGI,[48],> 100 µM
same,TGI,[49],> 100 µM
same,TGI,[50],> 100 µM
same,TGI,[51],> 100 µM
same,TGI,[52],> 100 µM
same,TGI,[53],> 100 µM
same,TGI,[54],> 100 µM
same,TGI,[55],> 100 µM
same,TGI,[56],> 100 µM
COc1ccc(C(=O)C2=NON3OC23C(=O)c2ccc(OC)cc2)cc1 (stereo unspecified),TGI,[1],10.6 µM
same,TGI,[2],18.2 µM
same,TGI,[3],48.5 µM
same,TGI,[4],31.3 µM
same,TGI,[5],6.79 µM
same,TGI,[7],21.7 µM
same,TGI,[8],21.5 µM
same,TGI,[9],11.1 µM
same,TGI,[10],36.4 µM
same,TGI,[57],34.1 µM
same,TGI,[11],32.8 µM
same,TGI,[12],19.6 µM
same,TGI,[13],36.6 µM
same,TGI,[15],33.7 µM
same,TGI,[16],> 100 µM
same,TGI,[17],5.16 µM
same,TGI,[18],52.9 µM
same,TGI,[19],27.3 µM
same,TGI,[20],8.29 µM
same,TGI,[21],36.6 µM
same,TGI,[22],35.5 µM
same,TGI,[23],11.4 µM
same,TGI,[24],6.68 µM
same,TGI,[25],31 µM
same,TGI,[26],32.8 µM
same,TGI,[27],25.7 µM
same,TGI,[28],> 21.9 µM
same,TGI,[29],33.3 µM
same,TGI,[30],17.8 µM
same,TGI,[31],40 µM
same,TGI,[32],3.68 µM
same,TGI,[33],23.3 µM
same,TGI,[34],16.2 µM
same,TGI,[35],36.7 µM
same,TGI,[36],21 µM
same,TGI,[37],> 50.7 µM
same,TGI,[58],17.1 µM
same,TGI,[38],31.8 µM
same,TGI,[39],40.2 µM
same,TGI,[40],34.1 µM
same,TGI,[41],24 µM
same,TGI,[42],34.5 µM
same,TGI,[43],32.7 µM
same,TGI,[44],29.3 µM
same,TGI,[45],33.7 µM
same,TGI,[46],28.6 µM
same,TGI,[47],33.7 µM
same,TGI,[48],43.6 µM
same,TGI,[59],42.3 µM
same,TGI,[50],11.4 µM
same,TGI,[51],34.1 µM
same,TGI,[52],30.3 µM
same,TGI,[53],34.9 µM
same,TGI,[54],37 µM
same,TGI,[55],28 µM
same,TGI,[56],23.9 µM
COc1nc2[nH]ccc2c(=O)[nH]1,TGI,[2],> 100 µM
same,TGI,[3],> 100 µM
same,TGI,[4],> 100 µM
same,TGI,[5],> 100 µM
same,TGI,[6],> 100 µM
same,TGI,[7],> 100 µM
same,TGI,[8],> 100 µM
same,TGI,[9],> 100 µM
same,TGI,[57],> 100 µM
same,TGI,[11],> 100 µM
same,TGI,[12],> 100 µM
same,TGI,[14],> 100 µM
same,TGI,[15],> 100 µM
same,TGI,[17],> 100 µM
same,TGI,[18],> 100 µM
same,TGI,[19],> 100 µM
same,TGI,[20],> 100 µM
same,TGI,[21],> 100 µM
same,TGI,[22],> 100 µM
same,TGI,[23],> 100 µM
same,TGI,[24],> 100 µM
same,TGI,[25],> 100 µM
same,TGI,[27],> 100 µM
same,TGI,[28],> 100 µM
same,TGI,[29],9.92 µM
same,TGI,[30],> 100 µM
same,TGI,[31],> 100 µM
same,TGI,[34],> 100 µM
same,TGI,[35],> 100 µM
same,TGI,[36],> 100 µM
same,TGI,[37],> 100 µM
same,TGI,[58],> 100 µM
same,TGI,[38],> 100 µM
same,TGI,[39],> 100 µM
same,TGI,[40],> 100 µM
same,TGI,[41],> 100 µM
same,TGI,[42],> 100 µM
same,TGI,[43],> 100 µM
same,TGI,[44],> 100 µM
same,TGI,[46],> 100 µM
same,TGI,[47],> 100 µM
same,TGI,[48],> 100 µM
same,TGI,[59],> 100 µM
same,TGI,[49],> 100 µM
same,TGI,[50],> 100 µM
same,TGI,[51],> 100 µM
same,TGI,[52],> 100 µM
same,TGI,[53],> 100 µM
same,TGI,[55],> 100 µM
